Experimental data reported in PubChem BioAssay (NCI).
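Dose response: 5 concentrations. Exposure: 48 h. Format: 96-well plates. Endpoint: linear interpolation; highest concentration if not reached. Here, GI50 denotes the concentration required for 50% inhibition of growth. TGI is the concentration that stops growth completely.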

Columns and labels:
Experiment in all cases: growth of human tumour cells (NCI), 48 h
A498 renal = tested on: A498 renal
OVCAR-3 ovarian = tested on: OVCAR-3 ovarian
IGROV1 ovarian = tested on: IGROV1 ovarian
A549 NSCLC = tested on: A549 NSCLC
TK-10 renal = tested on: TK-10 renal
EKVX NSCLC = tested on: EKVX NSCLC
K-562 leukemia = tested on: K-562 leukemia
HT29 colon = tested on: HT29 colon
SW-620 colon = tested on: SW-620 colon
786-0 renal = tested on: 786-0 renal
HCT-116 colon = tested on: HCT-116 colon
SNB-19 CNS = tested on: SNB-19 CNS
ACHN renal = tested on: ACHN renal
PC-3 prostate = tested on: PC-3 prostate
COLO 205 colon = tested on: COLO 205 colon
LOX IMVI melanoma = tested on: LOX IMVI melanoma
UO-31 renal = tested on: UO-31 renal
NCI-H460 lung = tested on: NCI-H460 lung
BT-549 breast = tested on: BT-549 breast
HCC-2998 colon = tested on: HCC-2998 colon
OVCAR-8 ovarian = tested on: OVCAR-8 ovarian
HL-60(TB) leukemia = tested on: HL-60(TB) leukemia
CAKI-1 renal = tested on: CAKI-1 renal
MDA-MB-435 = tested on: MDA-MB-435
HS 578T breast = tested on: HS 578T breast
MOLT-4 leukemia = tested on: MOLT-4 leukemia
KM12 colon = tested on: KM12 colon
CCRF-CEM leukemia = tested on: CCRF-CEM leukemia
SF-268 CNS = tested on: SF-268 CNS
SF-295 CNS = tested on: SF-295 CNS
NCI-H522 lung = tested on: NCI-H522 lung
NCI-H23 lung = tested on: NCI-H23 lung
OVCAR-5 ovarian = tested on: OVCAR-5 ovarian
HCT-15 colon = tested on: HCT-15 colon
UACC-257 melanoma = tested on: UACC-257 melanoma
SN12C renal = tested on: SN12C renal
SK-MEL-5 melanoma = tested on: SK-MEL-5 melanoma
NCI/ADR-RES ovarian = tested on: NCI/ADR-RES ovarian
SR leukemia = tested on: SR leukemia
OVCAR-4 ovarian = tested on: OVCAR-4 ovarian
SK-MEL-28 melanoma = tested on: SK-MEL-28 melanoma
RPMI-8226 leukemia = tested on: RPMI-8226 leukemia
SNB-75 CNS = tested on: SNB-75 CNS
DU-145 prostate = tested on: DU-145 prostate
NCI-H226 lung = tested on: NCI-H226 lung
HOP-62 NSCLC = tested on: HOP-62 NSCLC
MALME-3M melanoma = tested on: MALME-3M melanoma
SF-539 CNS = tested on: SF-539 CNS
RXF 393 renal = tested on: RXF 393 renal
U251 CNS = tested on: U251 CNS
MCF7 breast = tested on: MCF7 breast
MDA-MB-231 breast = tested on: MDA-MB-231 breast
HOP-92 NSCLC = tested on: HOP-92 NSCLC
M14 melanoma = tested on: M14 melanoma
SK-OV-3 ovarian = tested on: SK-OV-3 ovarian
T-47D breast = tested on: T-47D breast

COC1(OC)CC(CO)(CNc2nc(N)nc(Cl)c2C=O)C1
TGI (A498 renal): > 100 µM | TGI (OVCAR-3 ovarian): > 100 µM | TGI (IGROV1 ovarian): 48.3 µM | TGI (A549 NSCLC): > 100 µM | TGI (TK-10 renal): > 100 µM | TGI (EKVX NSCLC): 52.2 µM | TGI (K-562 leukemia): 32.1 µM | TGI (HT29 colon): > 100 µM | TGI (SW-620 colon): > 100 µM | TGI (786-0 renal): > 100 µM | TGI (HCT-116 colon): > 100 µM | TGI (SNB-19 CNS): > 100 µM | TGI (ACHN renal): 13 µM | TGI (PC-3 prostate): 77.4 µM | TGI (COLO 205 colon): > 100 µM | TGI (LOX IMVI melanoma): 35.2 µM | TGI (UO-31 renal): > 100 µM | TGI (NCI-H460 lung): > 100 µM | TGI (BT-549 breast): > 100 µM | TGI (HCC-2998 colon): 84.5 µM | TGI (OVCAR-8 ovarian): > 100 µM | TGI (HL-60(TB) leukemia): 35.8 µM | TGI (CAKI-1 renal): > 100 µM | TGI (MDA-MB-435): 85.9 µM | TGI (HS 578T breast): > 100 µM | TGI (MOLT-4 leukemia): 60.1 µM | TGI (KM12 colon): > 100 µM | TGI (CCRF-CEM leukemia): > 100 µM | TGI (SF-268 CNS): > 100 µM | TGI (SF-295 CNS): > 100 µM | TGI (NCI-H522 lung): 3.96 µM | TGI (NCI-H23 lung): 48.5 µM | TGI (OVCAR-5 ovarian): > 100 µM | TGI (HCT-15 colon): > 100 µM | TGI (UACC-257 melanoma): 71.6 µM | TGI (SN12C renal): > 100 µM | TGI (SK-MEL-5 melanoma): > 100 µM | TGI (NCI/ADR-RES ovarian): 88.1 µM | TGI (SR leukemia): 79.5 µM | TGI (OVCAR-4 ovarian): 90.4 µM | TGI (SK-MEL-28 melanoma): > 100 µM | TGI (RPMI-8226 leukemia): > 100 µM | TGI (SNB-75 CNS): > 100 µM | TGI (DU-145 prostate): > 100 µM | TGI (NCI-H226 lung): > 100 µM | TGI (HOP-62 NSCLC): > 100 µM | TGI (MALME-3M melanoma): > 100 µM | TGI (SF-539 CNS): > 100 µM | TGI (RXF 393 renal): > 100 µM | TGI (U251 CNS): > 100 µM | TGI (MCF7 breast): > 100 µM | TGI (MDA-MB-231 breast): 43.9 µM | TGI (HOP-92 NSCLC): 36.2 µM

CC(O)CCc1ccc(Oc2c3ccccc3nc3occc23)cc1 (stereo unspecified)
GI50 (OVCAR-3 ovarian): 4.4 µM | TGI (OVCAR-3 ovarian): 26.7 µM | GI50 (IGROV1 ovarian): 17.7 µM | TGI (IGROV1 ovarian): 56.9 µM | GI50 (A549 NSCLC): 4.22 µM | TGI (A549 NSCLC): 17.6 µM | GI50 (TK-10 renal): 1.22 µM | TGI (TK-10 renal): 7.75 µM | GI50 (K-562 leukemia): 4.18 µM | TGI (K-562 leukemia): 31.6 µM | GI50 (HT29 colon): 4.7 µM | TGI (HT29 colon): 18 µM | GI50 (786-0 renal): 9.8 µM | TGI (786-0 renal): 21.9 µM | GI50 (HCT-116 colon): 2.95 µM | TGI (HCT-116 colon): 15.6 µM | GI50 (SNB-19 CNS): 13.5 µM | TGI (SNB-19 CNS): 33 µM | GI50 (PC-3 prostate): 5.39 µM | TGI (PC-3 prostate): 21.7 µM | GI50 (COLO 205 colon): 5.81 µM | TGI (COLO 205 colon): 24.1 µM | GI50 (UO-31 renal): 14.2 µM | TGI (UO-31 renal): > 100 µM | GI50 (M14 melanoma): 5.54 µM | TGI (M14 melanoma): 17.9 µM | GI50 (NCI-H460 lung): 4.02 µM | TGI (NCI-H460 lung): 16.8 µM | GI50 (OVCAR-8 ovarian): 5.18 µM | TGI (OVCAR-8 ovarian): 19.6 µM | GI50 (SK-OV-3 ovarian): 15.3 µM | TGI (SK-OV-3 ovarian): 31.8 µM | GI50 (HL-60(TB) leukemia): 1.78 µM | TGI (HL-60(TB) leukemia): 9.69 µM | GI50 (CAKI-1 renal): 2.93 µM | TGI (CAKI-1 renal): 13.5 µM | GI50 (MDA-MB-435): 3.86 µM | TGI (MDA-MB-435): 15.6 µM | GI50 (HS 578T breast): 20.4 µM | TGI (HS 578T breast): 42.6 µM | GI50 (KM12 colon): 3.68 µM | TGI (KM12 colon): 19 µM | GI50 (CCRF-CEM leukemia): 9.41 µM | TGI (CCRF-CEM leukemia): 34.8 µM | GI50 (SF-268 CNS): 11 µM | TGI (SF-268 CNS): 29.6 µM | GI50 (SF-295 CNS): 4.51 µM | TGI (SF-295 CNS): 17.1 µM | GI50 (NCI-H522 lung): 19.1 µM | TGI (NCI-H522 lung): > 100 µM | GI50 (NCI-H23 lung): 2.41 µM | TGI (NCI-H23 lung): 12 µM | GI50 (OVCAR-5 ovarian): 11.9 µM | TGI (OVCAR-5 ovarian): 24.3 µM | GI50 (T-47D breast): 1.28 µM | TGI (T-47D breast): 10.9 µM | GI50 (UACC-257 melanoma): 3.7 µM | TGI (UACC-257 melanoma): 14.4 µM | GI50 (SN12C renal): 10.9 µM | TGI (SN12C renal): 24.2 µM | GI50 (NCI/ADR-RES ovarian): 2.7 µM | TGI (NCI/ADR-RES ovarian): 14.6 µM | GI50 (SR leukemia): 2.89 µM | TGI (SR leukemia): 9.28 µM | GI50 (OVCAR-4 ovarian): 5.08 µM | TGI (OVCAR-4 ovarian): 74 µM | GI50 (SK-MEL-28 melanoma): 12.3 µM | TGI (SK-MEL-28 melanoma): 25.1 µM | GI50 (RPMI-8226 leukemia): 4.91 µM | TGI (RPMI-8226 leukemia): > 100 µM | GI50 (SNB-75 CNS): 9.86 µM | TGI (SNB-75 CNS): 28.5 µM | GI50 (DU-145 prostate): 16.6 µM | TGI (DU-145 prostate): 32.2 µM | GI50 (NCI-H226 lung): 3.84 µM | TGI (NCI-H226 lung): 16.8 µM | GI50 (HOP-62 NSCLC): 17.8 µM | TGI (HOP-62 NSCLC): 31.9 µM | GI50 (SF-539 CNS): 13.9 µM | TGI (SF-539 CNS): 29.5 µM | GI50 (RXF 393 renal): 3.2 µM | TGI (RXF 393 renal): 8.89 µM | GI50 (U251 CNS): 18.1 µM | TGI (U251 CNS): 33.8 µM | GI50 (MCF7 breast): 3.14 µM | TGI (MCF7 breast): 9.27 µM | GI50 (MDA-MB-231 breast): 16.6 µM | TGI (MDA-MB-231 breast): > 100 µM
